PubChem BioAssay (NCI)
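Assay format: 96-well plates, 48-hour exposure. TGI is the concentration that stops growth completely.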 *1 amine or outer side, *2 acyl side, *3 side chain or, on linkers, in order; H or OH if unused. Where a SMILES comes first, the peptide text is derived from it. Bridges are numbered along the chain shown (N, C = ends). Roman numbers before positions name the chains, in order. [ ]: non-standard residue; d: D form. Actinocin(9to1) = Cc1c2oc3c(C)ccc(C(=O)[*:1])c3nc-2c(C(=O)[*:2])c(N)c1=O; X48 = O=C1CC(C(=O)[*:2])N([*:1])C1; NMeV = CN[CH](C(=O)O)C(C)C; Sar = CNCC(=O)O

Columns and labels:
Assay in all cases: NCI-60 cell line screen, 48 h
OVCAR-5 ovarian = test system: OVCAR-5 ovarian
KM12 colon = test system: KM12 colon
SF-539 CNS = test system: SF-539 CNS
K-562 leukemia = test system: K-562 leukemia
UACC-257 melanoma = test system: UACC-257 melanoma
TK-10 renal = test system: TK-10 renal
EKVX NSCLC = test system: EKVX NSCLC
UO-31 renal = test system: UO-31 renal
SK-MEL-28 melanoma = test system: SK-MEL-28 melanoma
CCRF-CEM leukemia = test system: CCRF-CEM leukemia
MALME-3M melanoma = test system: MALME-3M melanoma
SK-MEL-5 melanoma = test system: SK-MEL-5 melanoma
CAKI-1 renal = test system: CAKI-1 renal
SK-MEL-2 melanoma = test system: SK-MEL-2 melanoma
SNB-19 CNS = test system: SNB-19 CNS
SK-OV-3 ovarian = test system: SK-OV-3 ovarian
HCT-116 colon = test system: HCT-116 colon
OVCAR-4 ovarian = test system: OVCAR-4 ovarian
SNB-75 CNS = test system: SNB-75 CNS
NCI-H522 lung = test system: NCI-H522 lung

Compound	TGI (OVCAR-5 ovarian) [µM]	TGI (KM12 colon) [µM]	TGI (SF-539 CNS) [µM]	TGI (K-562 leukemia) [µM]	TGI (UACC-257 melanoma) [µM]	TGI (TK-10 renal) [µM]	TGI (EKVX NSCLC) [µM]	TGI (UO-31 renal) [µM]	TGI (SK-MEL-28 melanoma) [µM]	TGI (CCRF-CEM leukemia) [µM]	TGI (MALME-3M melanoma) [µM]	TGI (SK-MEL-5 melanoma) [µM]	TGI (CAKI-1 renal) [µM]	TGI (SK-MEL-2 melanoma) [µM]	TGI (SNB-19 CNS) [µM]	TGI (SK-OV-3 ovarian) [µM]	TGI (HCT-116 colon) [µM]	TGI (OVCAR-4 ovarian) [µM]	TGI (SNB-75 CNS) [µM]	TGI (NCI-H522 lung) [µM]
CCCCOC(=O)C1CN2C=CC=NC2=NC1(C(F)(F)F)C(F)(F)F (configuration not stated)	> 100	> 100	> 100	> 100	> 100	> 100	> 100	> 100	> 100	> 100	> 100	> 100	> 100	> 100	> 100	> 100	> 100	> 100	> 100	
COC1O[C@@H]2CCN3C(=O)[C@@H](OC(=O)c4ccc([N+](=O)[O-])cc4)[C@H]1C23 (some centres not stated)	> 100	> 100	> 100	> 100	> 100	> 100	> 100	> 100		> 100		> 100	> 100			> 100	> 100		> 100	> 100
N#CC1=C(S)N(C2OC(CO)C(O)C(O)C2O)C(c2ccccc2)=CC1c1ccccc1 (configuration not stated)	> 100	> 100	> 100	> 100	> 100	> 100		> 100	> 100	> 100	> 100	43.6	> 100		> 100		> 100	> 100	> 100	> 100
Cc1c2oc3c(C)ccc(C(=O)NC4C(=O)NC(C(C)C)C(=O)N5CC(=O)CC5C(=O)N(C)CC(=O)N(C)C(C(C)C)C(=O)OC4C)c3nc-2c(C(=O)NC2C(=O)NC(C(C)C)C(=O)N3CC(=O)CC3C(=O)N(C)CC(=O)N(C)C(C(C)C)C(=O)OC2C)c(N)c1=O (configuration not stated) (I: TV[X48][Sar][NMeV] / II: TV[X48][Sar][NMeV]; ester I:1-I:C, II:1-II:C; linker I:N-II:N via Actinocin(9to1); configuration not given here)	> 1		> 1	> 1	> 1	> 1	> 1	> 1	> 1	> 1	> 1	> 1	> 1	> 1	> 1	> 1	> 1	> 1		
C=CC1ON(C)CCc2cc(OC)c(OC)cc21 (configuration not stated)	> 100	> 100	> 100	> 100	> 100	> 100	> 100	> 100	> 100	> 100	> 100	> 100	> 100		> 100		> 100		> 100	> 100
CCOP(=O)(OCC)C1CC(O)CN1OC(=O)C(C)(C)C (configuration not stated)	> 100	> 100		> 100	> 100	> 100	> 100	> 100	> 100	> 100	> 100	> 100		> 100	> 100	> 100	> 100	> 100	> 100	
CC(=O)OCCCCn1cnc2nc(Nc3ccccc3)nc(Cl)c21		> 100	> 100	> 100	> 100	> 100	> 100	> 100	> 100	> 100	> 100	> 100	81.4	> 100	> 100	> 100	> 100	> 100	> 100	
O=C1CC(CC(O)C(O)C(O)CO)CC(=O)N1 (configuration not stated)	> 100	> 100	> 100	> 100	> 100		> 100	> 100	> 100	> 100	> 100	> 100	> 100				> 100	> 100	> 100	> 100
OCC1NCC(O)C(O)C1O (configuration not stated)	> 100	> 100	> 100		> 100	> 100	> 100	> 100	> 100	> 100	55.8	> 100	> 100		> 100	> 100	> 100	> 100	> 100	> 100
CCOC(=O)n1[nH]c(=O)n(-c2ccccc2)c1=O	> 100	> 100		> 100	> 100	> 100	> 100	> 100	> 100	> 100	> 100	> 100	> 100	> 100	> 100	> 100	> 100	> 100	> 100	
CCOC(=O)C(NC(=O)c1ccccc1)(Nc1ccc(S(=O)(=O)Nc2nc(C)cc(C)n2)cc1)C(F)(F)F (configuration not stated)	> 100	> 100	> 100	> 100	> 100	> 100	> 100	> 100	> 100	> 100	> 100	> 100	> 100	> 100	> 100	> 100	> 100	> 100	> 100	
Cc1ccc2c(=O)cc(-c3cccc4ccccc34)[nH]c2n1	> 47.1	1.98		> 36.8	> 100		> 100	> 55.4	> 100	> 100	0.0495	0.0897	> 100	2.47	> 100	2.64	> 34.8	> 85.1		
